In a melting point compilation (Tetko et al.; mined from patent text by program, amines drawn as free bases though some values may be those of a salt):

SMILES | melting point [°C]
CCC(Oc1ccc(C)cc1C)C(=O)OC1CC(O)C=C2C=CC(C)C(CCC3CC(O)CC(=O)O3)C21 (mixture of isomers) | 159 to 160
Cc1c(C2CCN(C)CC2)[nH]c(=O)c2ccccc12 | 202 to 204
CCOC(=O)c1cc2ccc([Si](C)(C)C)cc2[nH]1 | 127 to 129
CNCCCn1c(-c2ccc(Br)cc2)csc1=Nc1ccccc1 | 143 to 148
CC1(C)COC1(Cn1cncn1)c1ccc(F)cc1 (centres undefined) | 110
Clc1ccccc1-c1cc(-c2ccccc2)c(-c2ccccc2)s1 | 103 to 107
O=C(O)c1cccc(CNC(=O)C2Cc3ccccc3N2S(=O)(=O)c2ccc(-c3cccc(C(F)(F)F)c3)cc2)c1 (centres undefined) | 96
CCCc1c(SCCCOc2ccc3c(=O)cc(C(=O)OCC)oc3c2CCC)ccc(C(C)=O)c1N | 103 to 104
CCC(=O)Nc1nc(CC(=O)Nc2nnc(C(C)(C)C)s2)cs1 | 210 to 212
CCOC(=O)C(=CNC1CC1)C(=O)c1c(F)cc(Cl)c(F)c1Cl | 106 to 107
Cc1nc2ccc(F)cc2c(=O)n1-c1ccccc1Cl | 137 to 138
CCC(Oc1ccccc1)C(=O)OC1CC(O)C=C2C=CC(C)C(CCC3CC(O)CC(=O)O3)C21 (mixture of isomers) | 120 to 122
CC(C)(C)c1cc(-c2nc(Br)no2)cc(C(C)(C)C)c1O | 113 to 115
CC1OC(Sc2ccccc2)C(OCc2ccccc2)C(OC(=O)c2ccccc2)C1OC(=O)c1ccccc1 (centres undefined) | 98 to 100
Cc1cccc2c(=O)[nH]cc(Br)c12 | 201 to 210
Cc1ccccc1[C@@H](CCC(=O)O)Oc1cc(OCc2ccsc2)ccc1[N+](=O)[O-] | 130 to 131
CC(C)(C)NS(=O)(=O)c1ccccc1-c1ccc(NC(=O)C(C)(C)Nc2cccc(C#N)c2)cc1 | 190 to 193
BrCCc1nc(-c2ccccc2)c(-c2ccccc2)o1 | 72 to 74
O=C(NCCCCCC1CCSS1)c1ccccc1 (centres undefined) | 58 to 59
Cc1ccccc1OC(=O)N1CCCC1=O | 85 to 87
CC(=O)NC(C)(C)c1ccc(CN2CCN(c3cccc(F)n3)CC2)cc1 | 133 to 134
Cc1c(C=C2CCc3cc4ccccc4n3C2=O)ncn1C(c1ccccc1)(c1ccccc1)c1ccccc1 | 214 to 217
Cn1c(C(F)(F)F)cc(=O)n(-c2cc(OCCCl)c(Cl)cc2F)c1=O | 100 to 103

SMILES | melting point [°C]
Cn1cc2c(n1)Nc1ccc(F)cc1N=C2N1CCN(CC2CC2)CC1 | 188 to 189
O=Cc1cccc(OCc2nc(-c3ccccc3)c(-c3ccccc3)o2)c1 | 72 to 75
O=c1c2cccnc2c(-c2ccccc2)nn1-c1ccccc1 | 174 to 176
COc1nn(-c2ccc(CBr)c(Cl)c2)nc1Cl | 141 to 142
O=C1CCNC(=O)C1C(=O)c1ccc(Cl)cc1[N+](=O)[O-] (centres undefined) | 161 to 164
C=C(c1ccc(N(C)C)cc1)c1ccc(N(C)C)cc1 | 115
C=CCC(C)(C)C(O)C(c1cccc(OC)c1)n1ccnc1 (centres undefined) | 83
O=C(CCCc1ccc(Cl)cc1)c1ccc(OCc2ccc3ccccc3n2)cc1 | 140 to 142
COc1ccc2cc(C(C)C)ccc2c1 | 63.5 to 64.5
CC(C)C(NC(=O)C(Cc1ccccc1)NC(=O)c1ccc(NS(=O)(=O)c2ccc(C(C)(C)C)cc2)cc1)C(=O)Nc1n[nH]c(=S)s1 (centres undefined) | 140 to 144
O=C(O)C1=Cc2cc(F)c(F)cc2NC1C(F)(F)F (centres undefined) | 187 to 189
CCOC(=O)Nc1nc(C(=NOC)C(=O)OCC)ns1 | 108 to 110
O=C(C=Cc1cccc(S(=O)(=O)Nc2ccc3ccccc3c2)c1)NO | 164
Cc1[nH]cnc1CSCCNc1ncc(Cc2ccc(Cl)cc2)c(=O)[nH]1 | 204 to 206
COc1cc(C(=O)N2Cc3ccc(C(=O)NCc4ccc(C)cc4)n3Cc3ccccc32)ccc1-c1ccccc1C | 179 to 180
CC(C)c1ccc(-n2c(CC(=O)O)c(C(=O)O)c3cc(Oc4ccc(C(F)(F)F)cc4)ccc32)cc1 | 250 to 252
CC(C)(C)c1ccc(P2Oc3ccccc3-c3ccccc32)cc1 (centres undefined) | 90 to 92
CCOC(=O)CCCC(=O)c1ccc(-c2ccc(C)cc2)s1 | 120 to 121
O=C(NCc1ccc(Cl)cc1)c1cnc2c(F)cc(Br)cc2c1 | 254 to 255
CS(=O)(=O)c1ccc(-c2oc(CO)cc(=O)c2Oc2ccc(F)cc2F)cc1 | 205
CCOc1ccc(-c2ccc(C3COC(c4c(Cl)cncc4Cl)=N3)cc2)cc1 (centres undefined) | 121 to 122
O=C(O)c1cccc(-c2nccc(-c3ccc(F)cc3)n2)c1 | 239 to 241
CCNC(=S)Nc1cccc(C(=O)OCC)c1NCc1ccc(-c2ccccc2C#N)cc1 | 108 to 110

SMILES | melting point [°C]
CCN(CC)CCc1ccc2cc(N)ccc2n1 | 93 to 94
COc1ccc(C(=O)C2=C(c3ccccc3)c3ccccc3C2)cc1 | 114 to 115
Cc1nnc2n1-c1ccc([N+](=O)[O-])cc1C(c1ccccc1Cl)=CC2 | 225 to 227
CN(C)c1cccc(-n2cc(C(=O)NC(=N)N)c3cccnc32)c1 | 269 to 271
CCSc1ccc(CC(=O)NC(NC(Cc2ccccc2C)=NC#N)C(C)(C)C)cc1 (centres undefined) | 196 to 198
O=c1c2c(Cc3ccc(OC(F)(F)F)cc3)n[nH]c2c2cccnc2n1-c1cccc(C(F)(F)F)c1 | 134 to 137
O=c1[nH][nH]c(=O)n1CCOc1ccccc1 | 187 to 189
COc1ccc(NN=C(Sc2ccc(S(C)(=O)=O)cc2)C(C)=O)cc1 | 145 to 153
O=C1c2ccccc2-c2c1c1ccc([N+](=O)[O-])cc1c(=O)n2CCCNS(=O)(=O)c1ccccc1 | 258 to 259
COc1cc2c(cc1O)CCCN(Cc1ccccc1OC)C2 | 136 to 137
c1ccc(Cn2nnnc2-c2ccccc2)cc1 | 54 to 67
O=c1cc(Cl)sn1-c1ccc(Cl)cc1 | 117 to 119
COc1ccc(CSc2nnc(-c3ccc4nccn4c3)o2)cc1 | 155 to 156
COc1cc(C#N)c2nc(-c3ccc(OC)c(F)c3)cc(O)c2c1 | 218 to 220
O=C(O)C[C@H]1C[C@@H](CCCCCCc2ccc(Cl)cc2Cl)OC1=O (relative stereo) | 57 to 59
CCN(CC)C(=O)Nc1ccc(S(=O)(=O)N2C(=O)C(CCCN(C)C)(c3ccccc3F)c3cc(C)c(OC)cc32)cc1F (centres undefined) | 82
O=C(CCCN1CCN(c2ccc(F)cc2)CC1)NC1c2ccccc2CSc2ccccc21 (centres undefined) | 194
NC(=O)Cc1ccc(C2CCCCC2)cc1 | 167 to 168
O=C(CO[C@H]1NC(=O)[C@@H]1NC(=O)c1ccccc1)CC(=O)OCc1ccc([N+](=O)[O-])cc1 | 138 to 139
Cc1nnsc1C(=O)NCCc1ccccc1 | 64 to 68
N=C(N)NCCOc1ccc2c(c1)NC(=O)C(CCC(=O)O)C2 (centres undefined) | 193 to 196
Cc1c(Cl)cccc1NC(=O)C(C)(C)C | 113 to 114
CN(C)Cc1ccc(SC2CCN(C(c3ccccc3)(c3ccccc3)c3ccccc3)CC2)cc1 | 163
